In patent EP0200024B1, “3-Cyano-pyridines, process for their preparation and their pharmaceutical use” (ARZNEIMITTELWERK DRESDEN GmbH, priority 1985, dated 1986):
Like-named read-outs stand apart in the source and are kept apart here. Blank lines part the entries; values can stand above or below the compound they belong to.

Legend:
Narkotisierter Hund = assay: Anaesthetised dog i.v. (left ventricular pressure dp/dtmax, arterial pressure); format: in vivo, Bastardhunden; conditions: for Steigerungen des Kontraktilitätsparameters dp/dtmax: result in words; for ED10 / ED50: Canis lupus familiaris, iv; for ED10: read-out: 10%ige Senkung des diastolischen Blutdruckes bei einer Dosis von; for ED50: read-out: 50%ige Steigerung des Kontraktilitätsparameters dp/dtmax bei einer Dosis von
Text: Die Untersuchungen wurden an Bastardhunden in Chloralose-Urethan-Narkose bei Prämedikation mit Morphinhydrochlorid unter spontaner Atmung durchgeführt. . Der linksventrikuläre Druck wurde mittels Tipmanometer und der arterielle Druck wurde über Herzkatheter via A. brachialis gemessen [vgl. K. Femmer et al., Pharmazie 30 642 (1975)]. Unter dem Einfluß der 3-Cyan-2-(heteroalkyl-1-hetero)-pyridine der Formel I wurden eine dosisabhängige beträchtliche. Steigerung der Kontraktionskraft des Herzens sowie teilweise eine signifikante Senkung des peripheren Gesamtwiderstandes beobachtet. So zeigen beispielsweise die Verbindungen von Beispiel 3.2, 4.1, 4.3 und 4.5 eine 50%ige Steigerung des Kontraktilitätsparameters dp/dtmax bei einer Dosis von 6,1 · 10⁻⁶, 1,4 · 10⁻⁶, 2,5 · 10⁻⁶ bzw. 2.0 · 10⁻⁶ mol/kg sowie eine 10%ige Senkung des diastolischen Blutdruckes als relevantes Maß einer Abnahme des peripheren Gesamtwiderstandes bei einer Dosis von 2,1 · 10⁻⁶, 1,6 · 10⁻⁶,1,6 · 10⁻⁶ bzw. 1,2 · 10⁻⁶ mol/kg. Die Verbindung von Beispiel 2.1 zeigt bei einer Dosis von 5 mg/kg eine Steigerung von dp/dtmax um 126 % Für die Verbindung von Beispiel 2.1 wurde bei einer Dosis von 5 mg/kg eine Senkung des diastolischen Blutdruckes um 37 % gefunden.

Langendorff-Herz = assay: Langendorff heart in vitro (isolated perfused, freely beating heart; inotropy, chronotropy, coronary flow); set-up: species or system Meerschweinchen; activation: dose or concentration left out as unconfirmed; conditions: for EC30: molarity of solution, 0,1 ml bolus into aortic stump, giving 30 % increase of inotropy, read-out: Erhöhung der Inotropie um 30 % bei Applikation von je 0,1 ml einer ... molaren Lösung; for EC100: molarity of solution, 0,1 ml bolus, giving 100 % increase of coronary flow, read-out: Erhöhung des Koronardurchflusses um 100 % bei Applikation von je 0,1 ml einer ... molaren Lösung; for positiv chronotrope Wirkung / positiv inotrope Wirkung: result in words; for activation at 10000 µM / activation: 0,1 ml of a 10⁻² molar stock solution into the aorta; for activation at 10000 µM: read-out: Erhöhung der Inotropie; for activation: read-out: Erhöhung des Koronardurchflusses
Description: Für die Versuche wurden männliche Meerschweinchen mit einer, Körpermasse von 300-350 g eingesetzt. An isolierten, mit carbogenbegaster Tyrodelösung von 37 °C durchströmten, frei schlagenden Herzen, wurden unter konstantem Druck die Kontraktionskraft (Inotropie), die Frequenz (Chronotropie) und der Koronardurchfluß unter dem Einfluß der 3-Cyan-2-(heteroalkyl-1-hetero)-5-(pyrid-4-yl)-pyridine der Formel I untersucht. Dazu wurden jeweils 0,1 ml der entsprechend molaren Substanzlösungen als Bolus direkt in den Aortenstumpf appliziert. Die 3-Cyan-2-(heteraalkyl-1-hetera)-5-(pyrid-4-yl)-pyridine zeigten eine teilweise starke und konzentrationsabhängige positiv inotrope und koronardilatatorische Wirkung. Die positiv chronotrope Wirkung war deutlich geringer, ausgeprägt. Beispielsweise zeigen die Verbindungen der Beispiele 1.2, 1.6, 1.7 und 1.8 eine Erhöhung der Inotropie um 30 % bei Applikation von je 0,1 ml einer 3,0 · 10⁻³, 2,2 · 10⁻², 2,0 · 10⁻⁴ bzw. 1,0 · 10⁻³ molaren Lösung und eine Erhöhung des Koronardurchflusses um 100 % bei Applikation von je 0,1 ml einer 6,0 · 10⁻³, 6,5 · 10⁻², 1,1 · 10⁻² bzw. 1,3 · 10⁻² molaren Lösung. Die Verbindungen der Beispiele 2.2, 2.3 und 2.4 weisen bei Applikation von je 0,1 ml einer 10⁻² molaren Stammlösung in die Aorta eine Erhöhung der Inotropie um 51 %, 38 % und 31 % sowie eine Erhöhung des Koronardurchflusses um 59 %, 99 % bzw. 88 % auf.

[1] = system: Samenleiter von Meerschweinchen; assay: Noradrenaline antagonism in vitro (noradrenaline contraction of isolated vas deferens); conditions: Cavia porcellus; compound given 1 min before submaximal noradrenaline concentration; read-out: ED₅₀-Werte (Hemmung der Noradrenalinkontraktion)
Description: Die in Warmblüterphosphattyrode präparierten Samenleiter von Meerschweinchen (ca. 400 g Körpermasse) wurden 60 Min. im Organbad adaptiert. Anschließend wurden die Kontraktionen unter Gabe von Noradrenalin isotonisch registriert. Die 3-Cyan-2-(heteroalkyl-1-hetero)-pyridine der Formel I wurden 1 Min vor den jeweils submaximal reagierenden Noradrenalinkonzentrationen in das Organbad appliziert. […] Für die Verbindungen von Beispiel 1.2, 1.6, 1.7 und 1.8 ergaben sich beispielsweise ED₅₀-Werte von 2,2 · 10⁻⁵, 1,6 · 10⁻⁴, 2,5 · 10⁻⁴ sowie 1,3 · 10⁻⁴ mol/l.

Meerschweinchen = assay: Inhalative histamine bronchospasm, oral administration; format: in vivo; conditions: Cavia porcellus, 1 h, 60 min before inhaled 0,1 % histamine, 10 animals per dose, read-out: ED₅₀-Werte (Schutz vor Histamin-Bronchialkonstriktionen)
Description: Eine, in einem Ultraschallverdampfer vernebelte 0,1 %ige Histaminlösung induziert an männlichen Meerschweinchen (Körpermasse 200-300 g) innerhalb von 2 bis 3 Min. typische Bronchialkonstriktionen. Durch orale Verabreichung geeigneter Dosen der 3-Cyan-2-(heteroalkyl-1-hetero)-pyridine der Formel I 60 Min. vor der inhalativen Histamingabe wurden die Tiere innerhalb einer festgelegten Expositionszeit vor den durch Histamin verursachten Bronchialkonstriktionen geschützt. Für die Derivate von Beispiel 1.2, 1.6, 1.7 und 1.8 ergeben sich z.B. aus je 10 Tieren pro Dosis ED₅₀-Werte von 4,3 · 10⁻⁴, 6,0 · 10⁻⁴, 3,3 · 10⁻⁴ sowie 2,5 · 10⁻⁴ mol/kg, was auf deutliche bronchodilatatorische bzw. antiallergische Wirkungen hinweist.

[2] = system: Isolierter, spontanaktiver Vorhof des Meerschweinchens; assay: Isolated, spontaneously active atrium (inotropy and frequency); set-up: species or system Meerschweinchen; conditions: for chronotrope Wirkung / positiv inotrope Wirkung: result in words
Description: Für die Versuche wurden männliche Meerschweinchen mit einer Körpermasse von 400-500 g verwendet. Am isolierten, spontanaktiven Vorhof erfolgte nach einer 60 Min. währenden Adaptationszeit der Organpräparate in 32 °C temperierter carbogen-durchperlter Tyrodelösung die Untersuchung der Beeinflussung von Inotropie und Frequenz unter Einwirkung der 3-Cyan-2-(heteroalkyl-1-hetero)-pyridine der Formel I. Eine Reihe von Verbindungen zeigte eine starke und dosisabhängige positiv inotrope Wirkung. Bei Verwendung einer Tyrodelösung nach A.A. Alousi et al. [Circ. Res. 45, 666 (1979)] zeigen beispielsweise die Verbindungen von Beispiel 1.2, 1.7, 1.27, 3.3, 3.4, 3.5, 4.1 bzw. 4.3 eine 30%ige Steigerung der Inotropie bei Konzentrationen von 5,6 · 10⁻⁵, 5,4 · 10⁻⁶, 5,0 · 10⁻⁵, 5,8 · 10⁻⁵, 9,1 · 10⁻⁵, 1,6 · 10⁻⁴, 3,5 · 10⁻⁵ und 5,4 · 10⁻⁵ mol/l. Die Verbindung von Beispiel 1.27 zeigt bei einer Konzentration von 5 · 10⁻⁵ mol/l eine Abnahme der Frequenz um 15 %. Die Verbindung von Beispiel 1.8 zeigt bei Verwendung einer Tyrodelösung mit der Zusammensetzung (mmol/l): NaCl 136,9; KCl 2,7; CaCl₂ 1,8; MgCl₂ 1,0; NaHCO₃ 11,9; NaH₂PO₄ 0,4; Glucose 16,5 eine 30%ige Steigerung der Inotropie bei einer Konzentration von 1,2 · 10⁻⁴ mol/l.

[3] = Tyrode solution according to A.A. Alousi et al., 32 °C, read-out: 30%ige Steigerung der Inotropie bei Konzentrationen von

Compound: COc1ccc(-c2cc(C#N)c(N3CCOCC3)nc2C)cc1OC [3-Cyan-5-(3,4-dimethoxy-phenyl)-6-methyl-2-morpholino-pyridin]
Steigerungen des Kontraktilitätsparameters dp/dtmax (Narkotisierter Hund): dosisabhängige beträchtliche Steigerungen

Compound: Cc1nc(N2CCOCC2)c(C#N)cc1-c1ccccc1 [3-Cyan-6-methyl-2-morpholino-5-phenyl-pyridin]
Steigerungen des Kontraktilitätsparameters dp/dtmax (Narkotisierter Hund): dosisabhängige beträchtliche Steigerungen

IC50 [1]: 160 µM
Compound: N#Cc1cc(-c2ccncc2)cnc1N(CCO)CCO [Beispiel 1.6, 2-[Bis-(2-hydroxy-ethyl)-amino]-3-cyan-5-(pyrid-4-yl)-pyridin]
EC30 (Langendorff-Herz): 22000 µM
EC100 (Langendorff-Herz): 65000 µM
ED50 (Meerschweinchen): 600 µmol/kg

IC50 [1]: 130 µM
Compound: N#Cc1cc(-c2ccncc2)cnc1NCCCO [Beispiel 1.8, 3-Cyan-2-(3-hydroxy-propylamino)-5-(pyrid-4-yl)-pyridin]
EC30 (Langendorff-Herz): 1000 µM
EC100 (Langendorff-Herz): 13000 µM
positiv chronotrope Wirkung (Langendorff-Herz): relative geringer positiv chronotroper Aktivität
positiv inotrope Wirkung (Langendorff-Herz): ausgeprägte und dosisabhängige positiv inotrope Wirkung
ED50 (Meerschweinchen): 250 µmol/kg
EC30 ([2]; Tyrode solution (mmol/l): NaCl 136,9, KCl 2,7, CaCl₂ 1,8, MgCl₂ 1,0, NaHCO₃ 11,9, NaH₂PO₄ 0,4, Glucose 16,5, read-out: 30%ige Steigerung der Inotropie bei einer Konzentration von): 120 µM
chronotrope Wirkung [2]: relative geringer positiv chronotroper Aktivität
positiv inotrope Wirkung [2]: ausgeprägte und dosisabhängige positiv inotrope Wirkung

Compound: N#Cc1cc(-c2ccncc2)cnc1N1CCN(C(=O)c2ccco2)CC1 [Beispiel 1.27, 3-Cyan-2-[4-(furan-2-yl-carbonyl)-piperazino]-5-(pyrid-4-yl)-pyridin]
inhibition at 50 µM ([2]; Cavia porcellus, at a concentration of 5 · 10⁻⁵ mol/l, read-out: Abnahme der Frequenz): 15%
EC30 [2, 3]: 50 µM
chronotrope Wirkung [2]: negativ chronotroper Wirkung
positiv inotrope Wirkung [2]: gute positiv inotrope Wirkung

Compound: COCCOc1ncc(-c2ccncc2)cc1C#N [Beispiel 2.1, 3-Cyan-2-(2-methoxy-ethoxy)-5-(pyrid-4-yl)-pyridin]
Senkung des diastolischen Blutdruckes (Narkotisierter Hund; dose 5 mg/kg): 37%
Steigerung von dp/dtmax (Narkotisierter Hund; dose 5 mg/kg): 126%

Compound: N#Cc1cc(-c2ccncc2)cnc1OCCO [Beispiel 2.2, 3-Cyan-2-(2-hydroxy-ethoxy-)-5-(pyrid-4-yl)-pyridin]
activation at 10000 µM (Langendorff-Herz): 51%
activation (Langendorff-Herz): 59%
positiv chronotrope Wirkung (Langendorff-Herz): relative geringer positiv chronotroper Aktivität
positiv inotrope Wirkung (Langendorff-Herz): ausgeprägte und dosisabhängige positiv inotrope Wirkung
chronotrope Wirkung [2]: relative geringer positiv chronotroper Aktivität
positiv inotrope Wirkung [2]: ausgeprägte und dosisabhängige positiv inotrope Wirkung

Compound: N#Cc1cc(-c2ccncc2)cnc1OCCCO [Beispiel 2.3, 3-Cyan-2-(3-hydroxy-propoxy)-5-(pyrid-4-yl)-pyridin]
activation at 10000 µM (Langendorff-Herz): 38%
activation (Langendorff-Herz): 99%

Compound: CC(O)COc1ncc(-c2ccncc2)cc1C#N (stereo not shown) [Beispiel 2.4, 3-Cyan-2-(2-hydroxy-propoxy)-5-(pyrid-4-yl)-pyridin]
activation at 10000 µM (Langendorff-Herz): 31%
activation (Langendorff-Herz): 88%

Compound: Cc1nc(N2CCOCC2)c(C#N)cc1-c1ccncc1 [Beispiel 3.2, 3-Cyan-6-methyl-2-morpholino-5-(pyrid-4-yl)-pyridin]
ED10 (Narkotisierter Hund): 2.1 µmol/kg
ED50 (Narkotisierter Hund): 6.1 µmol/kg
Steigerungen des Kontraktilitätsparameters dp/dtmax (Narkotisierter Hund): dosisabhängige beträchtliche Steigerungen

Compound: Cc1nc(NCCO)c(C#N)cc1-c1ccncc1 [Beispiel 3.3, 3-Cyan-2-(2-hydroxy-ethylamino)-6-methyl-5-(pyrid-4-yl)-pyridin]
EC30 [2, 3]: 58 µM
positiv inotrope Wirkung [2]: gute und dosisabhängige positiv inotrope Wirkung

Compound: Cc1nc(NCCCO)c(C#N)cc1-c1ccncc1 [Beispiel 3.4, 3-Cyan-2-(3-hydroxy-propylamino)-6-methyl-5-(pyrid-4-yl)-pyridin]
EC30 [2, 3]: 91 µM
positiv inotrope Wirkung [2]: gute und dosisabhängige positiv inotrope Wirkung

Compound: Cc1nc(NCC(C)O)c(C#N)cc1-c1ccncc1 (stereo not shown) [Beispiel 3.5, 3-Cyan-2-(2-hydroxy-propylamino)-6-methyl-5-(pyrid-4-yl)-pyridin]
EC30 [2, 3]: 160 µM

Compound: CC(=O)OCCNc1ncc(-c2ccncc2)cc1C#N [Beispiel 4.1, 2-(2-Acetoxy-ethylamino)-3-cyan-5-(pyrid-4-yl)-pyridin]
ED10 (Narkotisierter Hund): 1.6 µmol/kg
ED50 (Narkotisierter Hund): 1.4 µmol/kg
Steigerungen des Kontraktilitätsparameters dp/dtmax (Narkotisierter Hund): dosisabhängige beträchtliche Steigerungen
EC30 [2, 3]: 35 µM
positiv inotrope Wirkung [2]: gute und dosisabhängige positiv inotrope Wirkung

Compound: CC(=O)OCCOc1ncc(-c2ccncc2)cc1C#N [Beispiel 4.3, 2-(2-Acetoxy-ethoxy)-3-cyan-5-(pyrid-4-yl)-pyridin]
ED10 (Narkotisierter Hund): 1.6 µmol/kg
ED50 (Narkotisierter Hund): 2.5 µmol/kg
Steigerungen des Kontraktilitätsparameters dp/dtmax (Narkotisierter Hund): dosisabhängige beträchtliche Steigerungen
EC30 [2, 3]: 54 µM
positiv inotrope Wirkung [2]: gute und dosisabhängige positiv inotrope Wirkung

Compound: CCC(=O)OCCNc1ncc(-c2ccncc2)cc1C#N [Beispiel 4.5, 3-Cyan-2-(2-propionyloxy-ethylamino)-5-(pyrid-4-yl)-pyridin]
ED10 (Narkotisierter Hund): 1.2 µmol/kg
ED50 (Narkotisierter Hund): 2 µmol/kg
Steigerungen des Kontraktilitätsparameters dp/dtmax (Narkotisierter Hund): dosisabhängige beträchtliche Steigerungen
